According to patent publication US20100152429A1, “SODIUM SALT OF DISACCHARIDE COMPOUND, METHOD FOR PRODUCING THE SAME, AND USE OF THE SAME” (Eisai R&D Management Co., Ltd., priority 2006, published 2010):

Test: Storage Safety Test: impurity generation on storage at 25° C., HPLC;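 also: HPLC peak area percentages of three decomposition products, each sample run alongside a methanol-only blank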
Assay type: physicochemical
Conditions: HPLC percentage of area
[1] = 1.0 days, stored at 25° C., listed as 3.93 Na salt
[2] = 1.9 days, stored at 25° C., listed as 3.93 Na salt
[3] = 4.5 days, stored at 25° C., listed as 3.93 Na salt
[4] = 0 days, stored in glass bottles at 25° C.
[5] = 1.0 days, stored at 25° C., listed as 3.67 Na salt
[6] = 1.9 days, stored at 25° C., listed as 3.67 Na salt
[7] = 4.5 days, stored at 25° C., listed as 3.67 Na salt

Method: When HPLC analysis was performed under the conditions shown in Table 1 for each solution and blank solution (methanol only), three types of decomposition product were identified, and the generation ratio (converted to a monthly basis) was calculated for each of the three decomposition products (impurities A, B and C) as a percentage of area.

CCCCCC/C=C\CCCCCCCCCC(=O)N[C@H]1[C@H](OC[C@H]2O[C@H](OP(=O)([O-])[O-])[C@H](NC(=O)CC(=O)CCCCCCCCCCC)[C@@H](OCCCCCCCCCC)[C@@H]2O)O[C@H](COC)[C@@H](OP(=O)([O-])[O-])[C@@H]1OCC[C@@H](CCCCCCC)OC.[Na+].[Na+].[Na+].[Na+] [Example 4]
Impurity B (0 days, stored in glass bottles at 25° C., listed as 3.93 Na salt): 0.14
Impurity A [1]: 0.03
Impurity B [1]: 0.26
Impurity A [2]: 0.04
Impurity B [2]: 0.29
Impurity A [3]: 0.06
Impurity B [3]: 0.38
Impurity C (29.5 days, stored at 25° C., listed as 3.93 Na salt): 0.06

CCCCCC/C=C\CCCCCCCCCC(=O)N[C@H]1[C@H](OC[C@H]2O[C@H](OP(=O)([O-])[O-])[C@H](NC(=O)CC(=O)CCCCCCCCCCC)[C@@H](OCCCCCCCCCC)[C@@H]2O)O[C@H](COC)[C@@H](OP(=O)([O-])[O-])[C@@H]1OCC[C@@H](CCCCCCC)OC.[Na+].[Na+].[Na+].[Na+] [Example 3]
Impurity A [4]: 0.00
Impurity C [4]: 0.00
Impurity B (0 days, stored in glass bottles at 25° C., listed as 3.67 Na salt): 0.08
Impurity C (1.0 days, stored at 25° C.): 0.00
Impurity A [5]: 0.00
Impurity B [5]: 0.12
Impurity C (1.9 days, stored at 25° C.): 0.00
Impurity A [6]: 0.01
Impurity B [6]: 0.09
Impurity C (4.5 days, stored at 25° C.): 0.01
Impurity A [7]: 0.01
Impurity B [7]: 0.13
Impurity C (8.8 days, stored at 25° C.): 0.01
Impurity C (29.5 days, stored at 25° C., listed as 3.67 Na salt): 0.07

CCCCCC/C=C\CCCCCCCCCC(=O)N[C@H]1[C@H](OC[C@H]2O[C@H](OP(=O)(O)O)[C@H](NC(=O)CC(=O)CCCCCCCCCCC)[C@@H](OCCCCCCCCCC)[C@@H]2O)O[C@H](COC)[C@@H](OP(=O)(O)O)[C@@H]1OCC[C@@H](CCCCCCC)OC [Example 2]
Impurity A [4]: 0.00
Impurity B [4]: 0.00
Impurity C [4]: 0.00
Impurity A (18 days, stored at 25° C.): 0.00
Impurity B (18 days, stored at 25° C.): 0.00
Impurity C (18 days, stored at 25° C.): 0.17

CCCCCCC=CCCCCCCCCCC(=O)NC1C(OCC2OC(OP(=O)([O-])[O-])C(NC(=O)CC(=O)CCCCCCCCCCC)C(OCCCCCCCCCC)C2O)OC(COC)C(OP(=O)([O-])[O-])C1OCCC(CCCCCCC)OC.[Na+].[Na+].[Na+].[Na+] (stereo not drawn) [Comparative Example 1, reference compound]
Impurity A [4]: 0.00
Impurity B [4]: 0.18
Impurity C [4]: 0.00
Impurity A (1.0 days, stored at 25° C.): 0.06
Impurity B (1.0 days, stored at 25° C.): 0.36
Impurity C (1.0 days, stored at 25° C.): 0.00
Impurity A (1.9 days, stored at 25° C.): 0.08
Impurity B (1.9 days, stored at 25° C.): 0.48
Impurity C (1.9 days, stored at 25° C.): 0.00
Impurity A (4.5 days, stored at 25° C.): 0.12
Impurity B (4.5 days, stored at 25° C.): 0.67
Impurity C (4.5 days, stored at 25° C.): 0.00
Impurity C (8.8 days, stored at 25° C.): 0.00
Impurity C (29.5 days, stored at 25° C.): 0.03
